Test system: 233499-124-R-J3-PDC spheroids with HUVEC/MSC, viability
Test: Anticancer human tumor 233499-124-R-J3-PDC patient-derived colon adenocarcinoma cell line growth inhibition [PI3K]
Details: for IC50: curve of first compound; for viability, T/C: stronger effect = lower value
Excerpt: Combinatorial screen of targeted agents with the PI3K inhibitors inavolisib, alpelisib, duvelisib, and copanlisib in multi-cell type tumor spheroids
A high-throughput screen of multi-cell type tumor spheroids was designed to identify active combinations of targeted small molecules and PI3K pathway inhibitors. Complex spheroids include a stromal component modeled by human endothelial cells (HUVEC) and fibroblasts modeled by human mesenchymal stem cells (MSCs). The concentration ranges selected for each drug and investigational agent were based upon clinically achievable concentrations if the clinical Cmax of the agent was known.
Compounds. The drugs and investigational agents: inavolisib (NSC800729), alpelisib (NSC765974), duvelisib (NSC772469), copanlisib (NSC816437), ipatasertib (NSC767898), afuresertib (NSC778305), talazoparib (NSC767125), sapanisertib (NSC764658), selumetinib (NSC741078), tovorafenib (DAY101, NSC766906), vemurafenib (NSC761431), ravoxertinib (NSC781343), sotorasib (NSC818433), MRTX1133 (NSC 836407), abemaciclib (NSC 768073), palbociclib (NSC758247), venetoclax (NSC 766270), SY5609 (NSC837396), enzalutamide (NSC755605), and darolutamide (NSC825331), were obtained from the National Cancer Institute (NCI) Developmental Therapeutics Program Chemical Repository. The FDA-approved anticancer drug set is available from the NCI Developmental Therapeutics Program. […] The stock solutions were prepared in dimethyl sulfoxide (DMSO, Sigma-Aldrich, St. Louis, MO, cat. D2650) at 800-fold the tested concentration and stored at -70 degrees C prior to their use. All drugs and investigational agents were tested over a range starting from a high concentration at or near the clinical Cmax and decreasing in half-log increments. If the clinical Cmax for an agent had not been determined, the highest concentration tested was 10 microM.
Cell Culture. All cells were maintained in an incubator at 37 degrees C and 5% CO2 with 95% humidity. The PDC lines were cultured according to standard operating procedures established by the NCI PDMR (https://pdmr.cancer.gov/sops/default.htm). All PDCs were thawed and cultured in Matrigel-coated flasks prepared with a working solution of 1X Ham's F-12 nutrient mix, without supplementation (Invitrogen, Waltham, MA, cat. 11765054), 100 U/mL penicillin-streptomycin (Invitrogen, cat. 15140122), and 2.5% Matrigel (Corning Inc., Corning, NY, cat. 354248) for the first three passages. The 354836-022-R-J1-PDC, 475296-252-R-J1-PDC, and 997726-040-R-J2-PDC lines were cultured in 6A media, which includes advanced DMEM/F-12 (Thermo Fisher Scientific, cat. 12634028), 10 mM HEPES (Thermo Fisher Scientific, cat. 15630080), 1X GlutaMAX supplement (Thermo Fisher Scientific, cat. 35050061), 0.1 mg/mL primocin (InvivoGen, San Diego, CA, cat. ant-pm-2), 10% defined fetal bovine serum, heat inactivated (HyClone Laboratories Inc., Logan, UT, cat. SH30070.03HI), 50% L-WRN conditioned media (ATCC, cat. CRL-3276), 1.25 mM N-Acetyl-L-cysteine (Sigma-Aldrich, cat. A9165), 10 mM nicotinamide (Sigma-Aldrich, cat. N0636), 1X B-27 supplement (Thermo Fisher Scientific, cat. 17504044), 1X N-2 supplement (Thermo Fisher Scientific, cat. 17502048), and 10 microM Y-27632 dihydrochloride (Tocris Bioscience, Bristol, United Kingdom, cat. 1254). The 624824-186-R-J2-PDC line was cultured in 6C/Colon 1B media, which includes all 6A media components plus 50 ng/mL human EGF recombinant protein (Thermo Fisher Scientific, cat. PHG0311). […]
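Also: spheroids exposed to agents for seven days before readout.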
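For viability, T/C in this document: percent viability relative to DMSO vehicle control taken as 100%.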

## CC(=O)c1c(C)c2cnc(Nc3ccc(N4CCNCC4)cn3)nc2n(C2CCCC2)c1=O + CC(Nc1ccc2c(c1)OCCn1cc(N3C(=O)OCC3C(F)F)nc1-2)C(N)=O
Second compound 0.00316 µM
  IC50: > 100 nM
Second compound 0.01 µM
  IC50: > 100 nM
Second compound 0.0316 µM
  IC50: > 100 nM
Second compound 0.1 µM
  IC50: > 100 nM
Second compound 0.316 µM
  IC50: > 100 nM
Second compound 1 µM
  IC50: > 100 nM
Second compound 0.00316 µM, first compound 0.000316 µM
  viability, T/C: 97.3%
Second compound 0.00316 µM, first compound 0.001 µM
  viability, T/C: 83.4%
Second compound 0.00316 µM, first compound 0.00316 µM
  viability, T/C: 95.7%
Second compound 0.00316 µM, first compound 0.01 µM
  viability, T/C: 73.7%
Second compound 0.00316 µM, first compound 0.0316 µM
  viability, T/C: 87.8%
Second compound 0.00316 µM, first compound 0.1 µM
  viability, T/C: 74.2%
Second compound 0.01 µM, first compound 0.000316 µM
  viability, T/C: 86.4%
Second compound 0.01 µM, first compound 0.001 µM
  viability, T/C: 87.5%
Second compound 0.01 µM, first compound 0.00316 µM
  viability, T/C: 80.9%
Second compound 0.01 µM, first compound 0.01 µM
  viability, T/C: 89.7%
Second compound 0.01 µM, first compound 0.0316 µM
  viability, T/C: 86%
Second compound 0.01 µM, first compound 0.1 µM
  viability, T/C: 70.6%
Second compound 0.0316 µM, first compound 0.000316 µM
  viability, T/C: 88.8%
Second compound 0.0316 µM, first compound 0.001 µM
  viability, T/C: 88.4%
Second compound 0.0316 µM, first compound 0.00316 µM
  viability, T/C: 76.7%
Second compound 0.0316 µM, first compound 0.01 µM
  viability, T/C: 89%
Second compound 0.0316 µM, first compound 0.0316 µM
  viability, T/C: 93.2%
Second compound 0.0316 µM, first compound 0.1 µM
  viability, T/C: 71.2%
Second compound 0.1 µM, first compound 0.000316 µM
  viability, T/C: 82.6%
Second compound 0.1 µM, first compound 0.001 µM
  viability, T/C: 84.4%
Second compound 0.1 µM, first compound 0.00316 µM
  viability, T/C: 81.2%
Second compound 0.1 µM, first compound 0.01 µM
  viability, T/C: 101%
Second compound 0.1 µM, first compound 0.0316 µM
  viability, T/C: 90.2%
Second compound 0.1 µM, first compound 0.1 µM
  viability, T/C: 65.2%
Second compound 0.316 µM, first compound 0.000316 µM
  viability, T/C: 83%
Second compound 0.316 µM, first compound 0.001 µM
  viability, T/C: 79.5%
Second compound 0.316 µM, first compound 0.00316 µM
  viability, T/C: 76.9%
Second compound 0.316 µM, first compound 0.01 µM
  viability, T/C: 67.2%
Second compound 0.316 µM, first compound 0.0316 µM
  viability, T/C: 79.3%
Second compound 0.316 µM, first compound 0.1 µM
  viability, T/C: 59.6%
Second compound 1 µM, first compound 0.000316 µM
  viability, T/C: 76.7%
Second compound 1 µM, first compound 0.001 µM
  viability, T/C: 68.7%
Second compound 1 µM, first compound 0.00316 µM
  viability, T/C: 50%
Second compound 1 µM, first compound 0.01 µM
  viability, T/C: 55.3%
Second compound 1 µM, first compound 0.0316 µM
  viability, T/C: 60.1%
Second compound 1 µM, first compound 0.1 µM
  viability, T/C: 48.9%
